According to patent US12590066B2, “Fused-heterocyclyl-carbonohydrazonoyl dicyanide compounds and use thereof” (KOREA INSTITUTE OF SCIENCE AND TECHNOLOGY, priority 2020, dated 2026):
pIC50: −log10 of the molar value.

Key:
CYP3A4 = molecular target: T1, CYP3A4 (Homo sapiens, UniProt P08684); assay: Inhibitory effect on CYP coenzyme activity, human liver microsomes; type: in vitro ADME; conditions: 10 μM compound, human liver microsomes 0.25 mg/mL, substrate midazolam, 15 minutes
T1 construct: human liver microsomes (0.25 mg/mL); from tissue; host or cells: human liver microsomes
T1 sequence (P08684 whole entry): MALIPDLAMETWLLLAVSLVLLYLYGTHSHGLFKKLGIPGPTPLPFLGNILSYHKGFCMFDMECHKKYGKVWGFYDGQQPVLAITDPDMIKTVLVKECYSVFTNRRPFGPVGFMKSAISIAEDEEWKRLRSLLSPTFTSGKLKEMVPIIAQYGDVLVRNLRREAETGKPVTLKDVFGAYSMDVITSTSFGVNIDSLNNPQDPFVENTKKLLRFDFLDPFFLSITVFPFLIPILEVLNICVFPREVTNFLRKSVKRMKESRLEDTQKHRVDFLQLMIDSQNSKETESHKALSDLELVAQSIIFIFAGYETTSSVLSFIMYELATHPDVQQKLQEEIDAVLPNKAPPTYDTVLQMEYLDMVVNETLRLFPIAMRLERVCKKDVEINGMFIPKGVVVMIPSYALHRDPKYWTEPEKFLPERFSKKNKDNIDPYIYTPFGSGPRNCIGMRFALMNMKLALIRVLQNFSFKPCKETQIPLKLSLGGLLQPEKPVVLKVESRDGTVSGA
Experimental: (§1) The inhibitory effects of the compounds prepared according to Examples 1 to 57 on CYP coenzyme activity were identified. Specifically, human liver microsomes (0.25 mg/mL), a 0.1 M phosphate buffer solution (pH 7.4), a substrate drug cocktail of five types of drug metabolism enzymes (50 μM phenacetin, 10 μM diclofenac, 100 μM S-mephenytoin, 5 μM dextromethorphan, and 2.5 μM midazolam), and the compound at a concentration of 0 μM or 10 μM were mixed and pre-cultured at 37° C. for 5 minutes, and then further cultured at 37° C. for 15 minutes together with an NADPH generation system solution added thereto. Thereafter, the reaction was terminated by adding an acetonitrile solution containing an internal standard material (terfenadine) and centrifuged for 5 minutes (14,000 rpm, 4° C.), and then a supernatant was injected into an LC-MS/MS system for simultaneous analysis of metabolites of the substrate drugs to thereby evaluate the inhibitory effects on drug metabolism.
(§2) Metabolites of each CYP coenzyme indicator drug generated through the reaction were analyzed using the Shimadzu Nexera XR system and TSQ Vantage (Thermo). In an HPLC column, Kinetex C18 (2.1 mm×100 mm, 2.6 μm, particle size; Phenomenex, USA) was used, and mobile phases were (A) distilled water containing 0.1% formic acid and (B) acetonitrile containing 0.1% formic acid, and a gradient program shown in Table 3 was applied thereto.
(§3) The generated metabolites were quantified using a multiple reaction monitoring (MRM) quantification mode, and Xcalibur (version 1.6.1) was used for data analysis. In order to express inhibitory effects of the novel compound prepared according to the examples of the present invention on CYP coenzyme activity, CYP coenzyme activities (%) with respect to the control group not treated with the compound are shown in Table 4 below.

CYP2C9 = molecular target: T2, CYP2C9 (Homo sapiens, UniProt P11712); assay: as above; type: in vitro ADME; conditions: 10 μM compound, human liver microsomes 0.25 mg/mL, substrate diclofenac, 15 minutes
T2 construct: human liver microsomes (0.25 mg/mL); from tissue; host or cells: human liver microsomes
T2 sequence (P11712 whole entry): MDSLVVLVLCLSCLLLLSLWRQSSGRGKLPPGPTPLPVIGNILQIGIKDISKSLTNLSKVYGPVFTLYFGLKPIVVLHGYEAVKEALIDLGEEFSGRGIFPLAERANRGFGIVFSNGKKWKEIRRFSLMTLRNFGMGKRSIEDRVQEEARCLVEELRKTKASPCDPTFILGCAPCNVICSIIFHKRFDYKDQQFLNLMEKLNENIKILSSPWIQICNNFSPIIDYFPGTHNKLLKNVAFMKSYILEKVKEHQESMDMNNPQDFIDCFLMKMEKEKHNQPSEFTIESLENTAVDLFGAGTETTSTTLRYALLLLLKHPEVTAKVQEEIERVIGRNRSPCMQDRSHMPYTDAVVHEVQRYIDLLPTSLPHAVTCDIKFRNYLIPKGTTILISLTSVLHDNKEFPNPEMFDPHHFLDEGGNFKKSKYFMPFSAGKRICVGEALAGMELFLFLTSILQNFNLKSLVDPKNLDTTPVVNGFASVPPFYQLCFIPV
Experimental: as §1, §2, §3

CYP2C19 = molecular target: T3, CYP2C19 (Homo sapiens, UniProt P33261); assay: as above; type: in vitro ADME; conditions: 10 μM compound, human liver microsomes 0.25 mg/mL, substrate S-mephenytoin, 15 minutes
T3 construct: human liver microsomes (0.25 mg/mL); from tissue; host or cells: human liver microsomes
T3 sequence (P33261 whole entry): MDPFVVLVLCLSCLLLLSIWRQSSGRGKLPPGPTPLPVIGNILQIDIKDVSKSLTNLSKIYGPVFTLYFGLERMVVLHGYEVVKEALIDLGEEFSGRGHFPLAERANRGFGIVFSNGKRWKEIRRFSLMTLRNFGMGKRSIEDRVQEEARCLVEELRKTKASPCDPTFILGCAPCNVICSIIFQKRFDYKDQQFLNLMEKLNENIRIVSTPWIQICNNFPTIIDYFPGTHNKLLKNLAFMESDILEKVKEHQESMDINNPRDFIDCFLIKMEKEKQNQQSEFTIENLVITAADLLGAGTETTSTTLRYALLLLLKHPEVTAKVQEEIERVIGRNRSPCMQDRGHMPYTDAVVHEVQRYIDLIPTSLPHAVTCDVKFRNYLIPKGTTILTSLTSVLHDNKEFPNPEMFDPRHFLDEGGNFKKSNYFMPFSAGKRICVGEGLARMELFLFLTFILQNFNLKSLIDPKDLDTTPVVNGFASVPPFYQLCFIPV
Experimental: as §1, §2, §3

CYP2D6 = molecular target: T4, CYP2D6 (Homo sapiens, UniProt P10635); assay: as above; type: in vitro ADME; conditions: 10 μM compound, human liver microsomes 0.25 mg/mL, substrate dextromethorphan, 15 minutes
T4 construct: human liver microsomes (0.25 mg/mL); from tissue; host or cells: human liver microsomes
T4 sequence (P10635 whole entry): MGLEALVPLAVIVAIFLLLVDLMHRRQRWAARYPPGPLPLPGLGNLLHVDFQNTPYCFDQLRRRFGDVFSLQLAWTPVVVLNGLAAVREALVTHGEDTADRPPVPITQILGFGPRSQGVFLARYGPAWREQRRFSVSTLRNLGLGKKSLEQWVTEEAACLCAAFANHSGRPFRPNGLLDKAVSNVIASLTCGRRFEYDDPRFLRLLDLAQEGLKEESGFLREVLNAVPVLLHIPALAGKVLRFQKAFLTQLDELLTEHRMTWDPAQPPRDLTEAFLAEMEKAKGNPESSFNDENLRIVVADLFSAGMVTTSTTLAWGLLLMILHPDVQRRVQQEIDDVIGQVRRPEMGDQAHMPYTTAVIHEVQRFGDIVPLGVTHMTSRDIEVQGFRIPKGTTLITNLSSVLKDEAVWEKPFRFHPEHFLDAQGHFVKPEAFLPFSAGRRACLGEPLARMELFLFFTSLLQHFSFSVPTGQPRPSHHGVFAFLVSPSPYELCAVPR
Experimental: as §1, §2, §3

CYP1A2 = molecular target: T5, CYP1A2 (Homo sapiens, UniProt P05177); assay: as above; type: in vitro ADME; conditions: 10 μM compound, human liver microsomes 0.25 mg/mL, substrate phenacetin, 15 minutes
T5 construct: human liver microsomes (0.25 mg/mL); from tissue; host or cells: human liver microsomes
T5 sequence (P05177 1-516): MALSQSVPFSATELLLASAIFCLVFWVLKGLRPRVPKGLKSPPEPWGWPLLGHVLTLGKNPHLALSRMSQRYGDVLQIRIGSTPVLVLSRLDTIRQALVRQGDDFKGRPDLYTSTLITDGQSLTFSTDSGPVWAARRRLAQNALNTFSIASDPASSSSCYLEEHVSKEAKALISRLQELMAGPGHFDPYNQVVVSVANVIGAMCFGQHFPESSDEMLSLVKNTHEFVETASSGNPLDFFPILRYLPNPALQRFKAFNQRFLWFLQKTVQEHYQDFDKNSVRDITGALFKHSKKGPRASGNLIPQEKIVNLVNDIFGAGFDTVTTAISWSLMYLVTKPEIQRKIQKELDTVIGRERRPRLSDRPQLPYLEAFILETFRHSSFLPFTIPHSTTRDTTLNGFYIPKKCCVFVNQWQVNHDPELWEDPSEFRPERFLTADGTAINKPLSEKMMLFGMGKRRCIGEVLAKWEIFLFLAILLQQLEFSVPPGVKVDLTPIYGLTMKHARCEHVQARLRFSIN
Experimental: as §1, §2, §3

Tau-BiFC cells = assay: Cell viability (stained nuclei count) in Tau-BiFC cells; type: cell-based; conditions: 10 μM compound, 48 hours; Forskolin-only group = 100% cell viability
Experimental: In order to select novel tau protein aggregation-inhibiting substances, tau-BiFC cell model, in which formation of tau oligomers in living cells is easily observed, was used. Tau-BiFC cells were aliquoted into a 384-well plate. On the next day, the cells were treated with each of the compounds prepared according to Examples 1 to 57 at concentrations of 1 μM, 3 μM, and 10 μM, together with Forskolin (at a treatment concentration of 30 μM), which is a compound inducing tau protein aggregation by activating tau phosphorylase PKA. After 48 hours, nuclei in the cells were stained using Hoechst (at a treatment concentration of 2 μg/mL), and BiFC fluorescence intensity was automatically measured using Operetta (PerkinElmer) to count stained nuclei in each well out of the entire well plate. The group treated only with Forskolin, which induces tau protein aggregation, was set to a reference point of a 100% tau protein-aggregated state, and the effects of the compounds were confirmed using the equation “BiFC fluorescence intensity due to compound synthesized according to embodiment of present invention/(fluorescence intensity of control group treated only with Forskolin inducing tau protein aggregation−fluorescence intensity of untreated control group)×100”. Furthermore, the degree of cytotoxicity induced by the newly synthesized compound was also measured based on the 100% cell viability of the group treated only with Forskolin as a reference, and the cytotoxicity value of each compound was calculated using the equation “(number of stained nuclei in group treated with compound/number of stained nuclei in group treated with Forskolin)×100”. Based on the treatment results, substances inhibiting intracellular tau protein aggregation were selected from a series of candidate groups showing a tau protein aggregation inhibition rate of 70% or more and cell viability of 100% at a compound treatment concentration of 10 μM or more. […]

tau protein = molecular target: T6, tau protein (Homo sapiens, UniProt P10636); assay: Tau-BiFC cell model, inhibition of Forskolin-induced tau protein aggregation; type: cell-based; conditions: Forskolin 30 μM, 48 hours
T6 construct: BiFC fluorescent-protein fragments (type and halves not specified); expressed in transfected cells
T6 sequence (P10636 1-441 isoform P10636-8): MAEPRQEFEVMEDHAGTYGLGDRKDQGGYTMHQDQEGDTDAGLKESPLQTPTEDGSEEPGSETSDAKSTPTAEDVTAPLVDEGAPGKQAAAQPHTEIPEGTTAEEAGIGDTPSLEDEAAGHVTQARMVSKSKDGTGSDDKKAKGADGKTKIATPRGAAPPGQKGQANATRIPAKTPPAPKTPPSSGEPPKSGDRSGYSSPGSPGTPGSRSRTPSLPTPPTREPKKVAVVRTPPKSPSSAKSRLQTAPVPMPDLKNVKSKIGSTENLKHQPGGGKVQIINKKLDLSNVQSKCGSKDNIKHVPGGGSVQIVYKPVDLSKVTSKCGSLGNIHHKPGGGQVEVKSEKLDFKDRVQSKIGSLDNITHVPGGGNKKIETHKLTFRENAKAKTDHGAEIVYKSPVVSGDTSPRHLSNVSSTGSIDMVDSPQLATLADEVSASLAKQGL
Experimental: In order to select novel tau protein aggregation-inhibiting substances, tau-BiFC cell model, in which formation of tau oligomers in living cells is easily observed, was used. Tau-BiFC cells were aliquoted into a 384-well plate. On the next day, the cells were treated with each of the compounds prepared according to Examples 1 to 57 at concentrations of 1 μM, 3 μM, and 10 μM, together with Forskolin (at a treatment concentration of 30 μM), which is a compound inducing tau protein aggregation by activating tau phosphorylase PKA. After 48 hours, nuclei in the cells were stained using Hoechst (at a treatment concentration of 2 μg/mL), and BiFC fluorescence intensity was automatically measured using Operetta (PerkinElmer) to count stained nuclei in each well out of the entire well plate. The group treated only with Forskolin, which induces tau protein aggregation, was set to a reference point of a 100% tau protein-aggregated state, and the effects of the compounds were confirmed using the equation “BiFC fluorescence intensity due to compound synthesized according to embodiment of present invention/(fluorescence intensity of control group treated only with Forskolin inducing tau protein aggregation−fluorescence intensity of untreated control group)×100”. Furthermore, the degree of cytotoxicity induced by the newly synthesized compound was also measured based on the 100% cell viability of the group treated only with Forskolin as a reference, and the cytotoxicity value of each compound was calculated using the equation “(number of stained nuclei in group treated with compound/number of stained nuclei in group treated with Forskolin)×100”. Based on the treatment results, substances inhibiting intracellular tau protein aggregation were selected from a series of candidate groups showing a tau protein aggregation inhibition rate of 70% or more and cell viability of 100% at a compound treatment concentration of 10 μM or more.
In order to evaluate dose-dependent tau protein aggregation inhibition effects of the compounds selected according to Experimental Example 1 on tau protein aggregation, tau-BiFC cells were treated with the selected compounds at concentrations of 0.03 μM, […], 0.3 μM, 1 μM, 3 μM, 10 μM, and 30 μM, respectively, together with Forskolin (at a treatment concentration of 30 μM), which is a tau protein aggregation-inducing substance. After 48 hours, tau protein aggregation reaction and degrees of cytotoxicity were analyzed by observing images of the cells. IC50 and toxicity of the compounds were analyzed by way of nonlinear regression analysis of prism software (Graph Pad).

Compound: Cc1cc(=O)n(C)c2ccc(NN=C(C#N)C#N)cc12 [Compound 27, (1,4-dimethyl-2-oxo-1,2-dihydroquinolin-6-yl)carbonohydrazonoyl dicyanide]
- CYP3A4 coenzyme activity (%) with respect to control group not treated (CYP3A4): 73.6%
- CYP2C9 coenzyme activity (%) with respect to control group not treated (CYP2C9): 33.6%
- CYP2C19 coenzyme activity (%) with respect to control group not treated (CYP2C19): 96.3%
- CYP2D6 coenzyme activity (%) with respect to control group not treated (CYP2D6): 86.7%
- CYP1A2 coenzyme activity (%) with respect to control group not treated (CYP1A2): 58.7%
- Cell viability (% @10 μM) (Tau-BiFC cells): 115%
- Tau BiFC in cells Response (% @10 μM) (tau protein; 10 μM compound, Forskolin-only group = 100% tau protein-aggregated state): −41%
- pIC50 (tau protein; tau-BiFC cells): 8.00
